Laboratory results published in ChEMBL document CHEMBL1287710, “A novel small-molecule inhibitor of IL-6 signalling” (Bioorg Med Chem Lett, 2010).
The source made the active and inactive calls. No cut-off for these calls is given here.

Tests used:
[1] = target: Signal transducer and activator of transcription 3 (Homo sapiens) (UniProt P40763); assay: Inhibition of STAT3 in IL-6-stimulated human MDA-MB-231 cells assessed as reduction in cell viability up to 125 uM after 24 hrs by MTS assay; format: cell-based
Sequence of Signal transducer and activator of transcription 3 (Homo sapiens) (P40763 whole entry): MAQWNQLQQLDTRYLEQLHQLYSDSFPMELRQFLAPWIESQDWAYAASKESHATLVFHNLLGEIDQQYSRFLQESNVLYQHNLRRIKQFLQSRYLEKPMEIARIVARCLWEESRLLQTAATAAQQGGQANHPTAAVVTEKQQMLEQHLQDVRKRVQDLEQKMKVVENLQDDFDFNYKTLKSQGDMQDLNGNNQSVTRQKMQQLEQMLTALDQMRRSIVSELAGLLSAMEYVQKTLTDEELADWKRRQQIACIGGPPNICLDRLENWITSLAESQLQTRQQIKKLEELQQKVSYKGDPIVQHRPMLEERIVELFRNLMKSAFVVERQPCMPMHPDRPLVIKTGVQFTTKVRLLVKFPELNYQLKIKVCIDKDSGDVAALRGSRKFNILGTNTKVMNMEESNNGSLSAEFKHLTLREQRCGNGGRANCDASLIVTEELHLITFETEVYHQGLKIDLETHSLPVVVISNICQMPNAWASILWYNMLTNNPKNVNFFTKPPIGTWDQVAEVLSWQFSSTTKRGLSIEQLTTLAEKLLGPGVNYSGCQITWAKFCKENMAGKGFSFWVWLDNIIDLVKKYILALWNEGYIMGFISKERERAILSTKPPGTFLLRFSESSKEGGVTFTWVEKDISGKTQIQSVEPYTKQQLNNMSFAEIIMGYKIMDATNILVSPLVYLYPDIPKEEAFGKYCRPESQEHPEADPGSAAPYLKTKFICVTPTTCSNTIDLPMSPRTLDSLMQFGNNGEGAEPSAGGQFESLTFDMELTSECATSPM

[2] = target: Signal transducer and activator of transcription 3 (Homo sapiens) (UniProt P40763); assay: Inhibition of IL-6 induced STAT3 phosphorylation at tyrosine 705 residue in serum-starved human HeLa cells at 10 to 30 uM after 20 mins by Western blot analysis; format: cell-based
[3] = target: Signal transducer and activator of transcription 3 (Homo sapiens) (UniProt P40763); assay: Inhibition of STAT3 in human HeLa cells at 5 to 100 uM by luciferase reporter assay; format: cell-based
MDA-MB-231 = assay: Cytostatic activity against human MDA-MB-231 cells assessed as cell viability after 24 hrs by trypan blue assay; format: functional, cell-based
[4] = target: T1, Signal transducer and activator of transcription 1-alpha/beta (Homo sapiens) (UniProt P42224); assay: Induction of STAT1 phosphorylation in human HeLa cells at 30 to 100 uM by Western blot analysis; format: cell-based
T1 sequence (whole entry): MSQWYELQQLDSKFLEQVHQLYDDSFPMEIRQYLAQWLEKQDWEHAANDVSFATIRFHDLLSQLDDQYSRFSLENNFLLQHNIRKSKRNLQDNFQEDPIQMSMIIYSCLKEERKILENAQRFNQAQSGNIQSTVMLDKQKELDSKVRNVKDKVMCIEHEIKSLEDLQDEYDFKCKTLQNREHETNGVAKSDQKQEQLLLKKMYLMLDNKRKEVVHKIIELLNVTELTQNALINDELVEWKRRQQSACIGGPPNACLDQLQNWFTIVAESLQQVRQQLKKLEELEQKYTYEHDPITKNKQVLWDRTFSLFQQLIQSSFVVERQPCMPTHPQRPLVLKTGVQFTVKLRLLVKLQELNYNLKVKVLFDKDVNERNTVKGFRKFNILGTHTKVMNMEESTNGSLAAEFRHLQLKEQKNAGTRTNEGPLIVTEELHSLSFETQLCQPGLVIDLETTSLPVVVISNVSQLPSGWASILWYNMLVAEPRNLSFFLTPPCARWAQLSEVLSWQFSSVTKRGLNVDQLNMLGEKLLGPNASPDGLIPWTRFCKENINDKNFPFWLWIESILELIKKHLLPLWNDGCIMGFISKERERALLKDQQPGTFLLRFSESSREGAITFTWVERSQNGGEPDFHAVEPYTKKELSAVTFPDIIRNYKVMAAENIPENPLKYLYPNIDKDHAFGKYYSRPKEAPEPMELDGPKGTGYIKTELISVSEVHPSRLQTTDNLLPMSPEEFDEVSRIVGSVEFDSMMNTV

[5] = target: Signal transducer and activator of transcription 3 (Homo sapiens) (UniProt P40763); assay: Inhibition of IL-6 induced STAT3 phosphorylation at tyrosine 705 residue in serum-starved human MDA-MB-231 cells at 30 to 100 uM after 20 mins by Western blot analysis; format: cell-based

- Activity [2]: Active
- Activity [3]: 15 µM
- Activity [4]: Active
- Activity [5]: Active
SMILES: Cc1ccc(-c2sc(C(=O)NCc3cccs3)cc2S(=O)(=O)N2CCCC2)cc1
- inhibition [1]: 40%
- Activity (MDA-MB-231): inactive
